Experimental data as given in patent US20260265298A1, “PEPTIDE SUBSTRATES AND INHIBITORS OF CATHEPSIN B” (The Regents of the University of California, priority 2023, published 2026).

Tests used:
[1] = test system: mouse BV2 microglia cells; assay: Cell death (LDH release) induced by low nutrient stress in microglia cells; assay type: cell-based; settings: 2 μM; 0% FBS for 24 hours
Experimental: (§1) Regulation of cathepsin B activity during cell death induced by low nutrient stress in microglia cells. […] Microglia cells (mouse BV2 cells) were treated with low nutrient culture media (0% fetal bovine serum, FBS) compared to a normal nutrient condition (10% FSB) for 24 hours. The low nutrient stress condition induced cell death monitored by LDH (lactate dehydrogenase) released into the culture media. The stress-induced increase in cell death was reduced by the inhibitor Z-Arg-Lys-AOMK (2 μM), a selective inhibitor of cathepsin B. (n=6, mean+sem, *p<0.05, student's t-test). […] Cathepsin B activity was elevated in cytosol isolated from microglia cells after treatment with low nutrient stress (0% FBS) for 24 hours. Cathepsin B activity was measured with the specific substrate Z-Nle-Lys-Arg-AMC ([…] in assay). Furthermore, the increase in cytosolic cathepsin B activity was blocked by the cathepsin B inhibitor Z-Arg-Lys-AOMK (2 μM) during low nutrient stress. (n=6, mean+sem, *p<0.05, student's t-test).

TBI mice = assay: Rotarod motor function in controlled cortical impact (CCI) model of TBI; assay type: in vivo, mouse; settings: 20 mg/kg, ip, one day before TBI, day of TBI and day 1 after; measured day 1 after TBI
Experimental: (§2) FIGS. 13a-13e show traumatic brain injury (TBI) in mice results in elevated brain cathepsin B activity, involved in motor deficit. […] Mice were subjected to the controlled cortical impact (CCI) model of TBI. Motor function was assessed by the rotarod assay on days 1, 3, and 7 after TBI. Control sham mice received surgery of the scalp but no TBI. Rotarod data are shown as mean+SD (n=5/group, mean+sem, *p<0.05, student's t-test). […] The TBI injury was conducted on the ipsilateral side of the brain cortex, shown by the tissue lesion at the site of TBI impact. […] Cathepsin B activity in homogenate of mouse brain cortex was measured with the Z-Nle-Lys-Arg-AMC substrate on day 6 after TBI. These TBI mice were treated with vehicle or Z-Arg-Lys-AOMK inhibitor (20 mg/kg, ip). (n=6 per group for vehicle-treated, and n=4 per group for treatment with inhibitor Z-Arg-Lys-AOMK; mean+sem, p<0.05, student's t-test).
TBI mice were treated with Z-Arg-Lys-AOMK inhibitor (20 mg/kg, ip) one day before TBI, on the day of TBI, and on day 1 after TBI. Motor function was measured on day 1 after TBI. (n=6 per group for vehicle-treated, and n=4 per group for treatment with inhibitor Z-Arg-Lys-AOMK; mean+sem, p<0.05, student's t-test).

cathepsin B [2] = biological target: T1, cathepsin B (Mus musculus, UniProt P10605); assay: Cathepsin B activity in ipsilateral brain cortex of TBI mice; assay type: in vivo; settings: 20 mg/kg, ip; day 6 after TBI
T1 construct: from tissue; host or cells: mouse ipsilateral brain cortex (homogenate and cytosol) after controlled cortical impact TBI
T1 sequence (P10605 80-333): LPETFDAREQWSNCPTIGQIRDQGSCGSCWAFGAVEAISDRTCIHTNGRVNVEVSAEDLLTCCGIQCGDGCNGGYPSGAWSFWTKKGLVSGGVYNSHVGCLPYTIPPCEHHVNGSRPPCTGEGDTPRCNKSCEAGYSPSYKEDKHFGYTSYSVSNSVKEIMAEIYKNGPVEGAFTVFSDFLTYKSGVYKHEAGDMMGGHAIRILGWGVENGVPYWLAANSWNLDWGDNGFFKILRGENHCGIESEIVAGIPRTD
Experimental: as §2
Cytosol from brain homogenate (obtained on day 6 after TBI) was isolated by differential density centrifugation. Cathepsin B in the cytosol from brain cortex was measured by the substrate Z-Nle-Lys-Arg-AMC substrate. (n=6 per group for vehicle treated, and n=4 per group for treatment with inhibitor Z-Arg-Lys-AOMK: mean+sem, p<0.05, student's t-test).

cathepsin B [3] = biological target: T1, cathepsin B; assay: Cytosolic cathepsin B activity in microglia cells during low nutrient stress; assay type: cell-based; settings: 2 μM; 0% FBS for 24 hours; substrate Z-Nle-Lys-Arg-AMC
Experimental: as §1

cathepsin B activity in brain cortex cytosol (cathepsin B [2]): inhibition of cathepsin B activity | cathepsin B activity in brain cortex homogenate (cathepsin B [2]): inhibition of cathepsin B activity | increase in cytosolic cathepsin B activity (cathepsin B [3]): blocked
Substance: Z-Arg-Lys-AOMK
stress-induced increase in cell death (LDH released into the culture media) [1]: reduced | motor deficit (rotarod) (TBI mice): improved motor deficit
